Measured values taken from patent US12594262B2, “CAI nanoemulsions” (ForwardVue Pharma, Inc., priority 2019, dated 2026).

Key:
[1] = cited from earlier work
[2] = cited from earlier work; remark: listed apart in the source
[3] = cited from earlier work; remark: listed apart in the source
[4] = Stability of CAI to autoclave sterilization, RP-HPLC analysis with UV detection; assay type: physicochemical; settings: autoclaving, for instance 121° C. for about 30 minutes
Description: Stable sterile formulations can then be prepared by autoclaving for sufficient time at temperatures suitable for effectively killing the microorganisms that may be present in the formulation, for instance, 121° C. for about 30 minutes.

[5] = humans, single 5 mg peribulbar injection; cited from earlier work

| SMILES | toxic effects observed in clinical studies ([1]; doses required to achieve circulating levels projected for inhibition of pathological neovascularization) | serious side effect of clinical use ([1]; systemic administration, two cases described (Berlin et al. 2002)) | plasma concentrations associated with unacceptable toxicity [2] | physiological tissue concentrations [3] | decomposition of CAI or formation of new impurities after sterilization [4] | concentration detected in the vitreous cavity [5] [ng/mL] |
| --- | --- | --- | --- | --- | --- | --- |
| NC(=O)c1nnn(Cc2cc(Cl)c(C(=O)c3ccc(Cl)cc3)c(Cl)c2)c1N [CAI] | cerebellar ataxia, peripheral neuropathy and exacerbation of depression | loss of vision | above 100 micromolar | 1-10 μM | no decomposition of CAI or formation of new impurities could be detected |  |
| C[C@@H]1C[C@H]2[C@@H]3CCC4=CC(=O)C=C[C@]4(C)[C@@]3(F)[C@@H](O)C[C@]2(C)[C@@]1(O)C(=O)CO [Dexamethasone] |  |  |  |  |  | 13 |
